As usually defined, the IC50 is the concentration at which inhibition is half-maximal.

Where only a bound is given, the exact number is not on record here.

IC50 data for 15 compounds are collected here from patent US11746098B2, “Proteasome activity enhancing compounds” (Proteostasis Therapeutics, Inc., priority 2018, dated 2023).

The experiment deals with USP14 (Homo sapiens, UniProt P54578). The experiment is described as follows: USP14 Inhibition Assay. To be noted: average value from a minimum of two experimental determinations, read-out: IC50 Category. The experiment is classed as biochemical. From the text: The activity of the compound described herein to inhibit USP14 can be measured using previously described methodology [B. H. Lee et al. Nature 2010, 467 (9), 179, the contents of which are expressly incorporated by reference herein].
Example 6: USP14 Inhibition Assay
Regarding `COc1cc(NS(=O)(=O)c2ccc(-n3c(C)cc(C(=O)CN4CCCCC4)c3C)cc2)nc(OC)n1` [Compound 1, N-(2,6-Dimethoxypyrimidin-4-yl)-4-(2,5-dimethyl-3-(2-(piperidin-1-yl)acetyl)-1H-pyrrol-1-yl)benzenesulfonamide], the IC50 was greater than 5 µM. Consider `COc1cc(NS(=O)(=O)c2ccc(-n3c(C)cc(C(=O)CN4CCC(O)CC4)c3C)cc2)nc(OC)n1` [Compound 2, N-(2,6-Dimethoxypyrimidin-4-yl)-4-(3-(2-(4-hydroxypiperdin-1-yl)acetyl)-2,5-dimethyl-1H-pyrrol-1-yl)benzenesulfonamide], for which the IC50 was greater than 5 µM. The same measure for `Cc1cc(C(=O)CN2CCC[C@@H]2C(N)=O)c(C)n1-c1ccc(Cl)cc1` [Compound 3, (R)-1-(2-(1-(4-Chlorophenyl)-2,5-dimethyl-1H-pyrrol-3-yl)-2-oxoethyl)pyrrolidine-2-carboxamide]: greater than 5 µM; for `COc1cc(NS(=O)(=O)c2ccc(-n3c(C)cc(C(=O)CN4CCCC4)c3C)cc2)nc(OC)n1` [Compound 4, N-(2,6-Dimethoxypyrimidin-4-yl)-4-(2,5-dimethyl-3-(2-(pyrrolidin-1-yl)acetyl)-1H-pyrrol-1-yl)benzenesulfonamide]: greater than 5 µM; for `Cc1cc(C(=O)CN2CCCCC2)c(C)n1-c1cccc2ccccc12` [Compound 5, 1-(2,5-Dimethyl-1-(naphthalen-1-yl)-1H-pyrrol-3-yl)-2-(piperidin-1-yl)ethanone]: greater than 5 µM. To `Cc1cc(C(=O)CN2CCCCC2)c(C)n1-c1ccc(O)cc1` [Compound 7, 1-(1-(4-Hydroxyphenyl)-2,5-dimethyl-1H-pyrrol-3-yl)-2-(piperidin-1-yl)ethanone] belongs greater than 5 µM; to `Cc1cc(C(=O)CN2CCCC2)c(C)n1-c1cccc2ccccc12` [Compound 8, 1-(2,5-Dimethyl-1-(naphthalen-1-yl)-1H-pyrrol-3-yl)-2-(pyrrolidin-1-yl)ethanone], greater than 5 µM; to `Cc1cc(C(=O)CN2CCC(O)CC2)c(C)n1-c1cccc2ccccc12` [Compound 9, 1-(2,5-Dimethyl-1-(naphthalen-1-yl)-1H-pyrrol-3-yl)-2-(4-hydroxypiperidin-1-yl)ethanone], greater than 5 µM. To `Cc1cc(C(=O)CN[C@H](C)C2CCCCC2)c(C)n1-c1ccc(Cl)cc1` [Compound 11, (R)-1-(1-(4-Chlorophenyl)-2,5-dimethyl-1H-pyrrol-3-yl)-2-((1-cyclohexylethyl)amino)ethan-one] belongs greater than 5 µM; to `Cc1cc(C(=O)CN2CCCCC2)c(C)n1-c1ccc(S(C)(=O)=O)cc1` [Compound 12, 1-(2,5-Dimethyl-1-(4-(methylsulfonyl)phenyl)-1H-pyrrol-3-yl)-2-(piperidin-1-yl)ethanone], greater than 5 µM. `Cc1cc(C(=O)CN2CCC(O)CC2)c(C)n1-c1ccc(S(C)(=O)=O)cc1` [Compound 13, 1-(2,5-Dimethyl-1-(4-(methylsulfonyl)phenyl)-1H-pyrrol-3-yl)-2-(4-hydroxypiperidin-1-yl)ethanone]: the half-inhibitory concentration (IC50) was greater than 5 µM.

On to `Cc1cc(C(=O)CN2CCCCC2)c(C)n1-c1cc(F)cc(F)c1` [Compound 14, 1-(1-(3,5-Difluorophenyl)-2,5-dimethyl-1H-pyrrol-3-yl)-2-(piperidin-1-yl)ethanone], for which the IC50 was greater than 5 µM.

As for `Cc1cc(C(=O)CN2CCC(O)CC2)c(C)n1-c1cc(F)cc(F)c1` [Compound 15, 1-(1-(3,5-Difluorophenyl)-2,5-dimethyl-1H-pyrrol-3-yl)-2-(4-hydroxypiperidin-1-yl)ethanone], the IC50 was greater than 5 µM.

With `Cc1cc(C(=O)CN2CCCC2)c(C)n1-c1cc(Cl)cc(Cl)c1` [Compound 16, 1-(1-(3,5-Dichlorophenyl)-2,5-dimethyl-1H-pyrrol-3-yl)-2-(pyrrolidin-1-yl)ethanone], the IC50 is greater than 5 µM. The same measure for `Cc1cc(C(=O)CN2CCCCC2)c(C)n1-c1cc(Cl)cc(Cl)c1` [Compound 17, 1-(1-(3,5-Dichlorophenyl)-2,5-dimethyl-1H-pyrrol-3-yl)-2-(piperidin-1-yl)ethanone]: greater than 5 µM.
